Assay results published in article PMC5786788, “Antimicrobial Octapeptin C4 Analogues Active against Cryptococcus Species” (Antimicrobial Agents and Chemotherapy, 2018).
Like-named read-outs stand apart in the source and are kept apart here. Where a SMILES comes first, the peptide text is derived from it. Bridges are numbered along the chain shown (N, C = ends). [ ]: non-standard residue; d: D form. The star is where a group is joined. Decanoyl(3R-OH) = CCCCCCC[C@@H](O)CC(=O)*; dDab = NCC[C@@H](N)C(=O)O; Dab = NCC[C@H](N)C(=O)O

Assays:
[1] = tested on: C. neoformans H99 (cap59Δ); format: cell-based, Cryptococcus neoformans; conditions: triplicate; for MICs against various Cryptococcus strains: H99 (cap59Δ): Table 2, values consistent across replicates
Description: The different susceptibility of C. neoformans and C. gattii to PMB compared to other pathogenic fungi such as C. albicans and A. fumigatus has been postulated to arise from differences in cell surface composition ([38]). One key difference is the presence of a negatively charged polysaccharide capsule in Cryptococcus spp. proposed to concentrate the cationic lipopeptides at the cell surface ([38]). To examine this potential interaction for the octapeptin series, a C. neoformans cap59Δ mutant strain deficient in the secretion of negatively charged glucuronoxylomannan (an α1–3-linked mannan containing β1,2 and β1,4 xylosyl substitutions, as well as β1,2-linked glucuronyl residues) ([41], [42]), was tested against octapeptin C4 in comparison to PMB.
(§1) Fungal strains were stored in 15% glycerol at −80°C until use. The fungal strains used were H99 (C. neoformans type strain) ([55]), cap59Δ (an acapsular H99 mutant) ([56]), ATCC 90113 (C. neoformans), MMRL 2651 (C. gattii), ATCC 90028 (Candida albicans), ATCC 90030 (Candida glabrata), ATCC 22019 (Candida parapsilosis), and ATCC MYA 3626 (Aspergillus fumigatus). Yeasts were cultured in liquid (1% yeast extract, 2% Bacto peptone, 2% glucose) or solid (additional 2% agar) yeast extract-peptone-dextrose (YPD) media at 30°C and maintained at 4°C for no longer than 2 weeks. A. fumigatus was prepared on potato dextrose medium at 30°C and maintained at 4°C for no longer than 2 weeks.
(§2) The MICs of the yeast strains for PMB, PME, and octapeptin C4 and its derivatives were determined in accordance with CLSI M27-A2 guidelines using YNB (Becton Dickinson, USA) medium supplemented with 10 mM ammonium sulfate and 2% glucose, a final inoculum concentration of 1.5 × 10^3 to 2.0 × 10^3 cells/ml, and incubation at 35°C for 72 h ([39]). […] The MICs for PMB, PME, and octapeptin C4 for A. fumigatus were determined in accordance with the CLSI M38-A2 guidelines ([40]) using synthetic RPMI 1640 medium (with glutamine, without bicarbonate and with phenol red; Life Technologies, USA). The final inoculum concentration was 0.4 × 10^4 to 5 × 10^4 cells/ml, with incubation at 35°C for 48 h. […] All assays were completed in triplicate. Fluconazole was used as a positive control where the MIC was determined at both 50% growth (in accordance with CLSI M27-A2 guidelines) and when there was a “no visible growth” reading.

C. neoformans ATCC 90113 = conditions: for MICs against various Cryptococcus strains: ATCC 90113: ATCC 90113, 72 h
Protocol: (§3) A broth microdilution assay was initially used to characterize the antifungal activity of the cyclic lipopeptides ([39], [40]). […] common pathogenic yeasts (C. albicans, C. glabrata, C. parapsilosis, C. neoformans, and C. gattii) and one pathogenic mold (A. fumigatus) were tested to determine the MIC for each compound (Table 1) using broth microdilution. […] The only structural difference between these molecules is the presence of a phenylalanine residue at position 6 in PMB; in PME a D-leucine is present at this location (Fig. 1).
as §1, §2

C. neoformans H99 = conditions: for MICs against various Cryptococcus strains: H99: H99, 72 h; for MIC C. neoformans H99: Table 1, CLSI M27-A2, YNB medium, 35°C, no visible growth after 72 h, triplicate
Protocol: as §3, §1, §2

C. gattii MMRL 2651 = tested on: C. gattii MMRL 2651
Protocol: as §3, §1, §2

[2] = tested on: capsule-induced or -suppressed C. neoformans H99 cells; assay: In vitro time course assay of capsule influence; format: cell-based, Cryptococcus neoformans; conditions: PMB at 12.5 μM
Protocol: (A) C. neoformans grown on capsule inducing RPMI 1640 agar medium (without L-glutamine and sodium bicarbonate) with incubation at 37°C in 5% CO2 for 3 days. Scale bar, 20 μm. (B) C. neoformans grown on capsule-suppressing media, YPD containing 1 M NaCl at 30°C in ambient air for 3 days. […] The data represent the means of two replicates, and the error bars represent the standard errors of the mean (SEM).
Capsule induction of strain H99 was achieved as described by Zhai et al. ([37]) with growth on RPMI 1640 (without L-glutamine and sodium bicarbonate) (Sigma, Australia) agar medium and incubation at 37°C in 5% CO2 and capsule suppression by growth on YPD containing 1 M NaCl at 30°C in ambient air. After 3 days, the cells from each culture were collected, washed twice with phosphate-buffered saline (PBS), and resuspended in PBS to avoid changes in the capsule at a density of 1,500 to 2,000 cells/ml. Cell suspensions were treated with test compounds at the determined MIC value. The compounds tested were PMB sulfate, octapeptin C4, and the octapeptin C4 alanine scan derivatives P1L, P1D, P4, P3, P4L, P4D, P5, P6, P7, and P8. At 0, 1, 2, 4, 6, and 8 h after inoculation, samples from each treatment were spread onto a YPD plate, followed by incubation at 30°C for 3 days, at which time the colonies were counted. The assay was repeated in duplicate, and paired sample t tests were performed using GraphPad Prism v7.0 (GraphPad Software, USA).

C. albicans = assay: Broth microdilution MIC; format: cell-based, Candida albicans; conditions: ATCC 90028; CLSI M27-A2, YNB medium, 35°C, no visible growth after 48 h; triplicate
Protocol: as §3, §1
(§4) […] The final inoculum concentration was 0.4 × 10^4 to 5 × 10^4 cells/ml, with incubation at 35°C for 48 h. […] All assays were completed in triplicate. […]

C. parapsilosis = assay: Broth microdilution MIC; format: cell-based, Candida parapsilosis; conditions: ATCC 22019; CLSI M27-A2, YNB medium, 35°C, no visible growth after 48 h; triplicate
Protocol: as §3, §1, §4

A. fumigatus = assay: Broth microdilution MIC (CLSI M38-A2); format: cell-based, Aspergillus fumigatus; conditions: ATCC MYA 3626; CLSI M38-A2, RPMI 1640, 35°C, no visible growth after 48 h; triplicate
Protocol: as §3
Fungal strains were stored in 15% glycerol at −80°C until use. […]
The MICs of the yeast strains for PMB, PME, and octapeptin C4 and its derivatives were determined in accordance with CLSI M27-A2 guidelines using YNB (Becton Dickinson, USA) medium supplemented with 10 mM ammonium sulfate and 2% glucose, a final inoculum concentration of 1.5 × 10^3 to 2.0 × 10^3 cells/ml, and incubation at 35°C for 72 h ([39]). […] The MICs for PMB, PME, and octapeptin C4 for A. fumigatus were determined in accordance with the CLSI M38-A2 guidelines ([40]) using synthetic RPMI 1640 medium (with glutamine, without bicarbonate and with phenol red; Life Technologies, USA). […]

[3] = tested on: melanized and nonmelanized C. neoformans cells; assay: In vitro time course assay of melanization effect; format: cell-based, Cryptococcus neoformans; conditions: melanin induced on L-DOPA agar vs suppressed on YPD agar; PMB at 12.5 μM, octapeptin C4 at 1.56 μM; 0-8 h; two replicates
Protocol: (A) Melanin suppressed C. neoformans. (B) Melanin induced C. neoformans. […] Samples from each flask were taken 0, 1, 2, 4, 6, and 8 h after inoculation, spread onto a YPD plate, and incubated at 30°C for 3 days, at which time the colonies were counted. The data represent the means of two replicates, and the error bars represent the SEM.
Melanization was induced by growth on L-DOPA agar medium at 30°C and suppressed by growth on YPD agar medium at 30°C. Cells were grown over 3 days and collected, washed twice in PBS, and then resuspended in PBS at a density of 1,500 to 2,000 cells/ml. Aliquots of the cells were treated with PMB sulfate, octapeptin C4, and the octapeptin C4 derivatives P1L, P1D, P4, P3, P4L, P4D, P5, P6, P7, and P8 at the determined MICs. At 0, 1, 2, 4, 6, and 8 h after inoculation, samples of the suspension were spread onto YPD agar and incubated at 30°C for 3 days, and the colonies were counted. The assay was repeated in duplicate, and paired sample t tests were performed in GraphPad Prism v7.0.

C. glabrata = assay: Broth microdilution MIC; format: cell-based, Candida glabrata; conditions: ATCC 90030; CLSI M27-A2, YNB medium, 35°C, no visible growth after 48 h; triplicate
Protocol: as §3, §1, §4

common fungal pathogens = assay: Broth microdilution MIC, panel of fungal pathogens; format: cell-based; conditions: highest concentration 100 μg/ml
Protocol: as §3
The MICs of the yeast strains for PMB, PME, and octapeptin C4 and its derivatives were determined in accordance with CLSI M27-A2 guidelines using YNB (Becton Dickinson, USA) medium supplemented with 10 mM ammonium sulfate and 2% glucose, a final inoculum concentration of 1.5 × 10^3 to 2.0 × 10^3 cells/ml, and incubation at 35°C for 72 h ([39]). […] The MICs for PMB, PME, and octapeptin C4 for A. fumigatus were determined in accordance with the CLSI M38-A2 guidelines ([40]) using synthetic RPMI 1640 medium (with glutamine, without bicarbonate and with phenol red; Life Technologies, USA). The final inoculum concentration was 0.4 × 10^4 to 5 × 10^4 cells/ml, with incubation at 35°C for 48 h. […] All assays were completed in triplicate. […]

CCCCCCC[C@@H](O)CC(=O)N[C@H](CCN)C(=O)N[C@H]1CCNC(=O)[C@H](CC(C)C)NC(=O)[C@H](CCN)NC(=O)[C@H](C)NC(=O)[C@H](CC(C)C)NC(=O)[C@@H](Cc2ccccc2)NC(=O)[C@H](CCN)NC1=O [Compound P6] ({Decanoyl(3R-OH)}-[dDab][Dab][Dab][dF]LA[Dab]L; lactam 2-C)
MICs against various Cryptococcus strains: H99 (cap59Δ) [1]: 12.5 µg/mL | MICs against various Cryptococcus strains: ATCC 90113 (C. neoformans ATCC 90113): 6.25 µg/mL | MICs against various Cryptococcus strains: H99 (C. neoformans H99): 6.25 µg/mL | MICs against various Cryptococcus strains: MMRL 2651 (C. gattii MMRL 2651; 72 h): 6.25 µg/mL

CCCCCCC[C@@H](O)CC(=O)N[C@H](CCN)C(=O)N[C@H]1CCNC(=O)[C@H](CC(C)C)NC(=O)[C@H](C)NC(=O)[C@H](CCN)NC(=O)[C@H](CC(C)C)NC(=O)[C@@H](Cc2ccccc2)NC(=O)[C@H](CCN)NC1=O [Compound P7] ({Decanoyl(3R-OH)}-[dDab][Dab][Dab][dF]L[Dab]AL; lactam 2-C)
MICs against various Cryptococcus strains: H99 (cap59Δ) [1]: 12.5 µg/mL | MICs against various Cryptococcus strains: ATCC 90113 (C. neoformans ATCC 90113): 6.25 µg/mL | MICs against various Cryptococcus strains: H99 (C. neoformans H99): 6.25 µg/mL | MICs against various Cryptococcus strains: MMRL 2651 (C. gattii MMRL 2651; Table 2, C. gattii, triplicate, values consistent across replicates): 12.5 µg/mL

CCCCCCC[C@@H](O)CC(=O)N[C@H](CCN)C(=O)N[C@H]1CCNC(=O)[C@H](C)NC(=O)[C@H](CCN)NC(=O)[C@H](CCN)NC(=O)[C@H](CC(C)C)NC(=O)[C@@H](Cc2ccccc2)NC(=O)[C@H](CCN)NC1=O [Compound P8] ({Decanoyl(3R-OH)}-[dDab][Dab][Dab][dF]L[Dab][Dab]A; lactam 2-C)
MICs against various Cryptococcus strains: H99 (cap59Δ) [1]: 100 µg/mL | MICs against various Cryptococcus strains: ATCC 90113 (C. neoformans ATCC 90113): 6.25 µg/mL | MICs against various Cryptococcus strains: H99 (C. neoformans H99): 50.0 µg/mL | MICs against various Cryptococcus strains: MMRL 2651 (C. gattii MMRL 2651; 72 h): 50.0 µg/mL

polymyxin B [PMB]
time to 50% reduction in viability, fungal cells with large capsule ([2]; H99, capsule induced on RPMI 1640 agar 37°C 5% CO2, cells in PBS, colony counts, two replicates): around 1 h | time to 50% reduction in viability, capsule suppressed fungal cells ([2]; H99, capsule suppressed on YPD with 1 M NaCl 30°C, relative to large capsule cells): five times longer | effect of capsule formation on fungicidal activity ([2]; H99, octapeptin C4 at 1.56 μM, 0-8 h, two replicates): enhanced the fungicidal effect | MIC C. albicans (C. albicans): >100 µg/mL | MIC C. parapsilosis (C. parapsilosis): >100 µg/mL | MIC C. neoformans H99 (cap59Δ) ([1]; Table 1, CLSI M27-A2, YNB medium, 35°C, no visible growth after 72 h): 50 µg/mL | MIC A. fumigatus (A. fumigatus): >100 µg/mL | effect of melanization on fungicidal activity [3]: no difference in activity | MIC C. neoformans ATCC 90113 (C. neoformans ATCC 90113; Table 1, CLSI M27-A2, YNB medium, 35°C, no visible growth after 72 h, triplicate): 12.5 µg/mL | MIC C. neoformans H99 (C. neoformans H99): 12.5 µg/mL | MIC C. gattii (C. gattii MMRL 2651; Table 1, MMRL 2651, CLSI M27-A2, YNB medium, 35°C, 72 h, triplicate): 25.0 µg/mL | MIC C. glabrata (C. glabrata): >100 µg/mL

polymyxin E [PME]
MIC C. albicans (C. albicans): >100 µg/mL | MIC C. parapsilosis (C. parapsilosis): >100 µg/mL | MIC A. fumigatus (A. fumigatus): >100 µg/mL | MIC C. neoformans H99 (C. neoformans H99): 100 µg/mL | MIC C. glabrata (C. glabrata): >100 µg/mL | antifungal activity against any of the species analyzed (common fungal pathogens): did not show significant antifungal activity
